How the values were obtained:
[1] = tested on: beet armyworm (BAW; Spodoptera exigua: Lepidoptera); assay: 128-well diet tray assay on beet armyworm (BAW 50); type: in vivo; conditions: 144 h, 50 ug/cm^2 of test compound on diet, second instar BAW larvae, 25° C., six days, average of eight wells, read-out: BAW 50 (percent mortality)
Protocol: (§1) Bioassays on beet armyworm (BAW; Spodoptera exigua: Lepidoptera) were conducted using either a 96-well microtiter plate-based high throughput (HTS) bioassay or a 128-well diet tray assay. The HTS assay is a based on a modification of Lewer et al. J. Nat. Prod. 2006, 69, 1506. BAW eggs were placed on top of artificial diet (100 microliters (μL)) in each well of 96-well microtiter plate. The diet was pretreated with test compounds (12 micrograms (μg) dissolved in 30 μL of DMSO-acetone-water mixture) layered on top of the diet using a liquid handling system and then allowed to dry for several hours. Infested plates were then covered with a layer of sterile cotton batting and the plate lid, and then held in the dark at 29° C. Mortality was recorded at 6 days (d) post-treatment. Each plate had six replicates. The percent mortality was calculated from the average of the six replicates. In the case of the 128-well diet assay, three to five second instar BAW larvae were placed in each well (3 mL) of the diet tray that had been previously filled with 1 mL of artificial diet to which 50 ug/cm^2 of the test compound (dissolved in 50 μL of 90:10 acetone/water mixture) had been applied (to each of eight wells) and then allowed to dry. Trays were covered with a clear self-adhesive cover, and held at 25° C., 14:10 light:dark for six days. Percent mortality was recorded for the larvae in each well; activity in the eight wells was then averaged. In Table 2 under both the BAW HTS and the BAW 50 headings, an “A” means that the compound was tested and at least 50 percent mortality was observed whereas, “B” means that either (1) the compound was tested and less than 50 percent mortality was observed or (2) the compound was not tested.

[2] = tested on: beet armyworm (BAW; Spodoptera exigua: Lepidoptera); assay: 96-well microtiter plate-based high throughput (HTS) bioassay on beet armyworm (BAW HTS); type: in vivo; conditions: 96-well plate; 12 μg test compound on 100 μL diet; BAW eggs; 29° C.; 6 days post-treatment; average of six replicates
Protocol: as §1

## CO[C@@H]1[C@@H](OC)[C@H](C)O[C@@H](OC2Cc3ccc(-c4ccnc(-c5ccc(Cl)cc5)n4)cc3C2)[C@@H]1OC (stereo partly drawn) [Compound 1C, 2-(4-Chlorophenyl)-4-[2-((2R,3R,4R,5S,6S)-3,4,5-trimethoxy-6-methyl-tetrahydropyran-2-yloxy)-indan-5-yl]-pyrimidine]
[1]
  mortality at 50 µg/cm2: > 50%
[2]
  BAW HTS (percent mortality): B (either (1) the compound was tested and less than 50 percent mortality was observed or (2) the compound was not tested)

## CO[C@@H]1[C@@H](OC)[C@H](C)O[C@@H](OC2Cc3ccc(-c4ccnc(-c5ccc(Cl)cc5Cl)n4)cc3C2)[C@@H]1OC (stereo partly drawn) [Compound 2C, 2-(2,4-Dichlorophenyl)-4-[2-((2R,3R,4R,5S,6S)-3,4,5-trimethoxy-6-methyl-tetrahydropyran-2-yloxy)-indan-5-yl]-pyrimidine]
[1]
  mortality at 50 µg/cm2: < 50%
[2]
  BAW HTS (percent mortality): A (the compound was tested and at least 50 percent mortality was observed)

## CO[C@@H]1[C@@H](OC)[C@H](C)O[C@@H](OC2Cc3ccc(-c4ccnc(-c5cccc(C(F)(F)F)c5)n4)cc3C2)[C@@H]1OC (stereo partly drawn) [Compound 3C, 2-(3-Trifluoromethylphenyl)-4-[2-((2R,3R,4R,5S,6S)-3,4,5-trimethoxy-6-methyl-tetrahydropyran-2-yloxy)-indan-5-yl]-pyrimidine]
[1]
  mortality at 50 µg/cm2: > 50%
[2]
  BAW HTS (percent mortality): B (either (1) the compound was tested and less than 50 percent mortality was observed or (2) the compound was not tested)

## CO[C@@H]1[C@@H](OC)[C@H](C)O[C@@H](OC2Cc3ccc(-c4ccnc(-c5ccc(C(F)(F)F)cc5)n4)cc3C2)[C@@H]1OC (stereo partly drawn) [Compound 4C, 2-(4-Trifluoromethylphenyl)-4-[2-((2R,3R,4R,5S,6S)-3,4,5-trimethoxy-6-methyl-tetrahydropyran-2-yloxy)-indan-5-yl]-pyrimidine]
[1]
  mortality at 50 µg/cm2: > 50%
[2]
  BAW HTS (percent mortality): B (either (1) the compound was tested and less than 50 percent mortality was observed or (2) the compound was not tested)

## COc1ccc(-c2nccc(-c3ccc4c(c3)CC(O[C@@H]3O[C@@H](C)[C@H](OC)[C@@H](OC)[C@H]3OC)C4)n2)cc1 (stereo partly drawn) [Compound 5C, 2-(4-methoxyphenyl)-4-[2-((2R,3R,4R,5S,6S)-3,4,5-trimethoxy-6-methyl-tetrahydropyran-2-yloxy)-indan-5-yl]-pyrimidine]
[1]
  mortality at 50 µg/cm2: > 50%
[2]
  BAW HTS (percent mortality): A (the compound was tested and at least 50 percent mortality was observed)

## CO[C@@H]1[C@@H](OC)[C@H](C)O[C@@H](OC2Cc3ccc(-c4ccnc(-c5cccnc5)n4)cc3C2)[C@@H]1OC (stereo partly drawn) [Compound 6C, 2-Pyridin-3-yl-4-[2-((2R,3R,4R,5S,6S)-3,4,5-trimethoxy-6-methyl-tetrahydropyran-2-yloxy)-indan-5-yl]-pyrimidine]
[1]
  mortality at 50 µg/cm2: < 50%
[2]
  BAW HTS (percent mortality): B (either (1) the compound was tested and less than 50 percent mortality was observed or (2) the compound was not tested)

## CO[C@@H]1[C@@H](OC)[C@H](C)O[C@@H](OC2Cc3ccc(-c4ccnc(-c5ccccc5)n4)cc3C2)[C@@H]1OC (stereo partly drawn) [Compound 7C, 2-Phenyl-4-[2-((2R,3R,4R,5S,6S)-3,4,5-trimethoxy-6-methyl-tetrahydropyran-2-yloxy)-indan-5-yl]-pyrimidine]
[1]
  mortality at 50 µg/cm2: < 50%
[2]
  BAW HTS (percent mortality): B (either (1) the compound was tested and less than 50 percent mortality was observed or (2) the compound was not tested)

## CO[C@@H]1[C@@H](OC)[C@H](C)O[C@@H](OC2Cc3ccc(-c4ccn(-c5ccc(C(F)(F)F)cn5)n4)cc3C2)[C@@H]1OC (stereo partly drawn) [Compound 8C, 5-trifluoromethyl-2-{3-[2-((2R,3R,4R,5S,6S)-3,4,5-trimethoxy-6-methyl-tetrahydropyran-2-yloxy)-indan-5-yl]-pyrazol-1-yl}-pyridine]
[1]
  mortality at 50 µg/cm2: > 50%
[2]
  BAW HTS (percent mortality): A (the compound was tested and at least 50 percent mortality was observed)

## CO[C@@H]1[C@@H](OC)[C@H](C)O[C@@H](OC2Cc3ccc(-c4ccn(-c5nnc(C(F)(F)F)s5)n4)cc3C2)[C@@H]1OC (stereo partly drawn) [Compound 9C, 2-trifluoromethyl-5-{3-[2-((2R,3R,4R,5S,6S)-3,4,5-trimethoxy-6-methyl-tetrahydropyran-2-yloxy)-indan-5-yl]-pyrazol-1-yl}-[1,3,4]thiadiazole]
[1]
  mortality at 50 µg/cm2: > 50%
[2]
  BAW HTS (percent mortality): A (the compound was tested and at least 50 percent mortality was observed)

## CO[C@@H]1[C@@H](OC)[C@H](C)O[C@@H](OC2Cc3ccc(-c4ccn(-c5ccc(OC(F)(F)C(F)(F)F)cc5)n4)cc3C2)[C@@H]1OC (some centres unmarked) [Compound 10C]
[1]
  mortality at 50 µg/cm2: > 50%
[2]
  BAW HTS (percent mortality): A (the compound was tested and at least 50 percent mortality was observed)
